Experimental data taken from DBAASP.
Converted amounts (≈) assume the structure as drawn. Blank lines part the entries; values can stand above or below the molecule they belong to.

Columns and labels:
Assay in all cases: ≥ marks a high value that may be exact or a test limit, other limits are often not marked, values filed in µg/mL are converted to µM
[1] = system: Streptococcus sanguinis ATCC 10556
[2] = system: Streptococcus mutans UA159
[3] = system: Lacticaseibacillus casei ATCC 393
[4] = system: Actinomyces viscosus ATCC 15987
[5] = system: Actinomyces naeslundii ATCC 12104
[6] = system: Limosilactobacillus fermentum ATCC 9338
[7] = system: Lactobacillus acidophilus ATCC 14931
[8] = system: Streptococcus gordonii DL1
[9] = system: Candida albicans ATCC 2002
[10] = system: Escherichia coli ATCC 25922
[11] = system: Pseudomonas aeruginosa CMCCB 10104
[12] = system: Staphylococcus aureus ATCC 2592
[13] = system: Bacillus subtilis KCTC 1998
[14] = system: Staphylococcus aureus ATCC 25923
[15] = system: Staphylococcus epidermidis ATCC 12228
[16] = system: Aspergillus parasiticus KCTC 6598
[17] = system: Candida albicans KCTC 7270
[18] = system: Trichosporon beigelii KCTC 7707
[19] = system: Proteus vulgaris KCTC 2433
[20] = system: Salmonella typhimurium KCTC 1926
[21] = system: Aspergillus flavus KCTC 6905
[22] = system: Aspergillus awamori KCTC 6915
[23] = system: Aspergillus fumigatus KCTC 6145
[24] = system: Pseudomonas aeruginosa ATCC 15692
[25] = system: Listeria monocytogenes KCTC 3710
[26] = system: Micrococcus luteus ATCC 9341
[27] = system: Pseudomonas aeruginosa ATCC 9027
[28] = system: Escherichia coli ATCC 2592
[29] = system: Staphylococcus aureus ATCC 6538
[30] = system: Staphylococcus aureus 1550
[31] = system: Candida albicans ATCC 90028
[32] = system: Klebsiella pneumoniae ATCC 13883
Listeria ivanovii = system: Listeria ivanovii
[33] = system: Staphylococcus aureus ST1065
[34] = system: Candida parapsilosis ATCC 22019
[35] = system: Enterococcus faecalis ATCC 29212
[36] = system: Pseudomonas aeruginosa ATCC 27853
Escherichia coli ML-35p = system: Escherichia coli ML-35p
[37] = system: Salmonella enterica subsp. enterica serovar Enteritidis
[38] = system: Acinetobacter baumannii ATCC 19606
Saccharomyces cerevisiae = system: Saccharomyces cerevisiae
[39] = system: Streptococcus pyogenes ATCC 19615
[40] = system: Escherichia coli DH5alpha
Staphylococcus xylosus = system: Staphylococcus xylosus

SMILES: CC(C)C[C@H](NC(=O)CN)C(=O)N[C@@H](CC(C)C)C(=O)N[C@@H](Cc1c[nH]c2ccccc12)C(=O)N[C@@H](Cc1cnc[nH]1)C(=O)N[C@@H](CC(C)C)C(=O)N[C@@H](CC(C)C)C(=O)N[C@@H](Cc1cnc[nH]1)C(=O)N[C@@H](Cc1cnc[nH]1)C(=O)N[C@@H](CC(C)C)C(=O)N[C@@H](CC(C)C)C(=O)N[C@@H](Cc1cnc[nH]1)C(=O)N[C@@H](CC(C)C)C(=O)N[C@@H](CC(C)C)C(=O)N[C@@H](Cc1cnc[nH]1)C(=O)N[C@@H](Cc1cnc[nH]1)C(N)=O [GLLWHLLHHLLHLLHH]
MIC [1]: ≥ 64.3 µM
MIC [2]: ≥ 257 µM
MIC [3]: 4.02 µM (≈ 8 µg/mL)
MIC [4]: ≥ 257 µM
MIC [5]: ≥ 257 µM
MIC [6]: 16.1 µM (≈ 32 µg/mL)
MIC [7]: 4.02 µM (≈ 8 µg/mL)
MIC [8]: ≥ 64.3 µM

SMILES: CC[C@H](C)[C@H](NC(=O)[C@H](CCCCN)NC(=O)[C@H](CCCCN)NC(=O)[C@H](Cc1ccccc1)NC(=O)[C@H](CC(C)C)NC(=O)[C@H](CCCCN)NC(=O)[C@H](CCCCN)NC(=O)[C@H](CC(C)C)NC(=O)[C@H](CCCN=C(N)N)NC(=O)[C@H](CCCCN)NC(=O)[C@H](C)N)C(=O)N[C@@H](Cc1c[nH]c2ccccc12)C(=O)N[C@@H](CC(N)=O)C(=O)N[C@@H](Cc1c[nH]c2ccccc12)C(=O)N[C@@H](CCCCN)C(N)=O [AKRLKKLFKKIWNWK]
MIC [13]: 2 µM (≈ 3.97 µg/mL)
MIC [14]: 2 µM (≈ 3.97 µg/mL)
MIC [15]: 2.83 µM (≈ 5.62 µg/mL)
MIC [16]: 8 µM (≈ 15.9 µg/mL)
MIC [17]: 8 µM (≈ 15.9 µg/mL)
MIC [18]: 16 µM (≈ 31.8 µg/mL)
MIC [19]: 4 µM (≈ 7.95 µg/mL)
MIC [10]: 4 µM (≈ 7.95 µg/mL)
MIC [20]: 1 µM (≈ 1.99 µg/mL)
MIC [21]: 16 µM (≈ 31.8 µg/mL)
MIC [22]: 16 µM (≈ 31.8 µg/mL)
MIC [23]: 8 µM (≈ 15.9 µg/mL)
MIC [24]: 1 µM (≈ 1.99 µg/mL)
MIC [25]: 2 µM (≈ 3.97 µg/mL)

SMILES: CC[C@H](C)[C@H](NC(=O)CNC(=O)[C@H](CO)NC(=O)[C@H](C)NC(=O)[C@@H](N)Cc1ccccc1)C(=O)N[C@@H](C)C(=O)NCC(=O)N[C@@H](CCSC)C(=O)N[C@@H](C)C(=O)NCC(=O)N[C@@H](CCCCN)C(=O)N[C@@H](CC(C)C)C(=O)N[C@@H](Cc1ccccc1)C(N)=O [FASGIAGMAGKLF]
MIC [31]: ≥ 200 µM
MIC [14]: > 200 µM
MIC [32]: ≥ 200 µM
MIC (Listeria ivanovii): ≥ 200 µM
MIC [33]: ≥ 200 µM
MIC [10]: > 200 µM
MIC [34]: ≥ 200 µM
MIC [35]: > 200 µM
MIC [36]: > 200 µM
MIC (Escherichia coli ML-35p): ≥ 200 µM
MIC [37]: ≥ 200 µM
MIC [38]: > 200 µM
MIC (Saccharomyces cerevisiae): ≥ 200 µM
MIC [39]: ≥ 200 µM

Now from value to molecule:

MIC [9]: 2.57 µM (≈ 5 µg/mL)
MIC [10]: 10.3 µM (≈ 20 µg/mL)
MIC [11]: 10.3 µM (≈ 20 µg/mL)
MIC [12]: 5.14 µM (≈ 10 µg/mL)
SMILES: CC[C@H](C)[C@H](N)C(=O)N[C@@H](CC(C)C)C(=O)NCC(=O)N1CCC[C@H]1C(=O)N[C@H](C(=O)N[C@@H](CC(C)C)C(=O)NCC(=O)N[C@@H](CC(C)C)C(=O)N[C@H](C(=O)NCC(=O)N[C@@H](CC(N)=O)C(=O)N[C@@H](C)C(=O)N[C@@H](CC(C)C)C(=O)NCC(=O)NCC(=O)N[C@@H](CC(C)C)C(=O)N[C@H](C(=O)N[C@@H](CCCCN)C(=O)N[C@@H](CCCCN)C(=O)N[C@H](C(N)=O)[C@@H](C)CC)[C@@H](C)CC)C(C)C)C(C)C [ILGPVLGLVGNALGGLIKKI]

MIC [26]: 9.01 µM (≈ 11 µg/mL)
MIC [27]: 13.1 µM (≈ 16 µg/mL)
MIC [28]: 18 µM (≈ 22 µg/mL)
MIC [29]: 10.2 µM (≈ 12.5 µg/mL)
MIC [30]: 13.1 µM (≈ 16 µg/mL)
SMILES: CC(C)C[C@H](NC(=O)[C@@H](NC(=O)[C@H](CCCCN)NC(=O)[C@H](Cc1ccccc1)NC(=O)[C@@H](NC(=O)[C@@H](NC(=O)[C@H](CCCCN)NC(=O)[C@@H](N)CC(C)C)C(C)C)C(C)C)C(C)C)C(=O)N[C@@H](Cc1ccccc1)C(=O)N[C@@H](CCCCN)C(=O)O [LKVVFKVLFK]

MIC [40]: 8 µM (≈ 11.7 µg/mL)
MIC (Staphylococcus xylosus): 0.5 µM (≈ 0.733 µg/mL)
SMILES: CC[C@H](C)[C@H](NC(=O)[C@H](CCCCN)NC(=O)[C@H](CCCCN)NC(=O)[C@@H](N)CCCCN)C(=O)N[C@H](C(=O)N[C@H](C(=O)N[C@H](C(=O)N[C@H](C(=O)N[C@H](C(=O)N[C@@H](CCCCN)C(=O)N[C@@H](CCCCN)C(=O)N[C@@H](CCCCN)C(=O)O)[C@@H](C)CC)[C@@H](C)CC)[C@@H](C)CC)[C@@H](C)CC)[C@@H](C)CC [KKKIIIIIIKKK]
